For 14 molecules, IC50 results are on record in ChEMBL document CHEMBL3217717, “Synthesis and antiproliferative activity of novel erythromycin derivatives” (Medchemcomm, 2010).

Common to all, as to assay type: functional, cell-based
A short description of experiment [1]: Cytotoxicity against human SGC7901 cells assessed as growth inhibition after 48 hrs by MTT assay. The settings on record: SGC-7901, 48 h.
The next experiment relates to KB. As to the kind of experiment: Cytotoxicity against human KB cells assessed as growth inhibition after 48 hrs by MTT assay.
Experiment [2] in a line: Cytotoxicity against human HT1080 cells assessed as growth inhibition after 48 hrs by MTT assay. As to conditions: HT-1080, 48 h.

Molecules are shown by their SMILES.

For the molecule `CC[C@H]1OC(=O)[C@H](C)[C@@H](O[C@H]2C[C@@](C)(OC)[C@@H](O)[C@H](C)O2)[C@H](C)[C@@H](O[C@@H]2O[C@H](C)C[C@H](N(C)CCN(C)[C@H]3C[C@@H](C)O[C@@H](O[C@@H]4[C@@H](C)[C@H](O[C@H]5C[C@@](C)(OC)[C@@H](O)[C@H](C)O5)[C@@H](C)C(=O)O[C@H](CC)[C@@](C)(O)[C@H](O)[C@@H](C)/C(=N\OCc5cc(OC)c(OC)c(OC)c5)[C@H](C)C[C@@]4(C)OC)[C@@H]3O)[C@H]2O)[C@](C)(OC)C[C@@H](C)/C(=N/OCc2cc(OC)c(OC)c(OC)c2)[C@H](C)[C@@H](O)[C@]1(C)O`, the figures for the IC50 (in experiment [1]; in the experiment with KB; in experiment [2]) were 20 µM, 20.1 µM and 10.3 µM, respectively.

As for `C=CCO/N=C1/[C@H](C)C[C@@](C)(O)[C@H](O[C@@H]2O[C@H](C)C[C@H](N(C)CCN(C)[C@H]3C[C@@H](C)O[C@@H](O[C@@H]4[C@@H](C)[C@H](O[C@H]5C[C@@](C)(OC)[C@@H](O)[C@H](C)O5)[C@@H](C)C(=O)O[C@H](CC)[C@@](C)(O)[C@H](O)[C@@H](C)/C(=N\OCC=C)[C@H](C)C[C@@]4(C)O)[C@@H]3O)[C@H]2O)[C@@H](C)[C@H](O[C@H]2C[C@@](C)(OC)[C@@H](O)[C@H](C)O2)[C@@H](C)C(=O)O[C@H](CC)[C@@](C)(O)[C@H](O)[C@H]1C`, the IC50 in experiment [1] was over 100 µM; in the experiment with KB it was 17.5 µM; in experiment [2] it was 27.7 µM.

Consider `CC[C@H]1OC(=O)[C@H](C)[C@@H](O)[C@H](C)[C@@H](O[C@@H]2O[C@H](C)C[C@H](N(C)CCN(C)[C@H]3C[C@@H](C)O[C@@H](O[C@@H]4[C@@H](C)[C@H](O[C@H]5C[C@@](C)(OC)[C@@H](O)[C@H](C)O5)[C@@H](C)C(=O)O[C@H](CC)[C@@](C)(O)[C@H](O)[C@@H](C)/C(=N\O)[C@H](C)C[C@@]4(C)OC)[C@@H]3O)[C@H]2O)[C@](C)(OC)C[C@@H](C)/C(=N/O)[C@H](C)[C@@H](O)[C@]1(C)O`, for which the IC50 worked out at 12.7 µM in experiment [1], 38.2 µM with KB and 42.8 µM in experiment [2].

In the case of `CC[C@H]1OC(=O)[C@H](C)[C@@H](O[C@H]2C[C@@](C)(OC)[C@@H](O)[C@H](C)O2)[C@H](C)[C@@H](O[C@@H]2O[C@H](C)C[C@H](N(C)CCN(C)[C@H]3C[C@@H](C)O[C@@H](O[C@@H]4[C@@H](C)[C@H](O[C@H]5C[C@@](C)(OC)[C@@H](O)[C@H](C)O5)[C@@H](C)C(=O)O[C@H](CC)[C@@](C)(O)[C@H](O)[C@@H](C)/C(=N\OCc5ccccc5)[C@H](C)C[C@@]4(C)O)[C@@H]3O)[C@H]2O)[C@](C)(O)C[C@@H](C)/C(=N/OCc2ccccc2)[C@H](C)[C@@H](O)[C@]1(C)O`, the half-maximal inhibitory concentration (IC50) (in experiment [1]; in the experiment with KB; in experiment [2]) was over 100 µM in each case.

Take `CC[C@H]1OC(=O)[C@H](C)[C@@H](O[C@H]2C[C@@](C)(OC)[C@@H](O)[C@H](C)O2)[C@H](C)[C@@H](O[C@@H]2O[C@H](C)C[C@H](N(C)CCN(C)[C@H]3C[C@@H](C)O[C@@H](O[C@@H]4[C@@H](C)[C@H](O[C@H]5C[C@@](C)(OC)[C@@H](O)[C@H](C)O5)[C@@H](C)C(=O)O[C@H](CC)[C@@](C)(O)[C@H](O)[C@@H](C)/C(=N\OCc5cc(OC)c(OC)c(OC)c5)[C@H](C)C[C@@]4(C)O)[C@@H]3O)[C@H]2O)[C@](C)(OC)C[C@@H](C)C(=O)[C@H](C)[C@@H](O)[C@]1(C)O`: the IC50 in experiment [1] worked out at 17.4 µM; with KB it was 30.2 µM; in experiment [2], 41.5 µM.

Regarding `CC[C@H]1OC(=O)[C@H](C)[C@@H](O[C@H]2C[C@@](C)(OC)[C@@H](O)[C@H](C)O2)[C@H](C)[C@@H](O[C@@H]2O[C@H](C)C[C@H](N(C)CC(=O)N(C)[C@H]3C[C@@H](C)O[C@@H](O[C@@H]4[C@@H](C)[C@H](O[C@H]5C[C@@](C)(OC)[C@@H](O)[C@H](C)O5)[C@@H](C)C(=O)O[C@H](CC)[C@@](C)(O)[C@H](O)[C@@H](C)C(=O)[C@H](C)C[C@@]4(C)O)[C@@H]3O)[C@H]2O)[C@](C)(OC)C[C@@H](C)C(=O)[C@H](C)[C@@H](O)[C@]1(C)O`, the IC50 (in experiment [1]; with KB; in experiment [2]) was over 100 µM in each case.

`CC[C@H]1OC(=O)[C@H](C)[C@@H](O[C@H]2C[C@@](C)(OC)[C@@H](O)[C@H](C)O2)[C@H](C)[C@@H](O[C@@H]2O[C@H](C)C[C@H](N(C)CCN(C)[C@H]3C[C@@H](C)O[C@@H](O[C@@H]4[C@@H](C)[C@H](O[C@H]5C[C@@](C)(OC)[C@@H](O)[C@H](C)O5)[C@@H](C)C(=O)O[C@H](CC)[C@@](C)(O)[C@H](O)[C@@H](C)/C(=N\OCc5cc(OC)c(OC)c(OC)c5)[C@H](C)C[C@@]4(C)O)[C@@H]3O)[C@H]2O)[C@](C)(O)C[C@@H](C)/C(=N/OCc2cc(OC)c(OC)c(OC)c2)[C@H](C)[C@@H](O)[C@]1(C)O`: the 50% inhibitory concentration (IC50) in experiment [1] was determined as 28.4 µM; with KB, 8.3 µM; in experiment [2], 3.9 µM.

Regarding `CCCCCO/N=C1/[C@H](C)C[C@@](C)(OC)[C@H](O[C@@H]2O[C@H](C)C[C@H](N(C)CCN(C)[C@H]3C[C@@H](C)O[C@@H](O[C@@H]4[C@@H](C)[C@H](O[C@H]5C[C@@](C)(OC)[C@@H](O)[C@H](C)O5)[C@@H](C)C(=O)O[C@H](CC)[C@@](C)(O)[C@H](O)[C@@H](C)/C(=N\OCCCCC)[C@H](C)C[C@@]4(C)OC)[C@@H]3O)[C@H]2O)[C@@H](C)[C@H](O[C@H]2C[C@@](C)(OC)[C@@H](O)[C@H](C)O2)[C@@H](C)C(=O)O[C@H](CC)[C@@](C)(O)[C@H](O)[C@H]1C`, the IC50 in experiment [1] was 30.8 µM; in the experiment on KB it was over 100 µM; in experiment [2], 54.1 µM.

`CC[C@H]1OC(=O)[C@H](C)[C@@H](O[C@H]2C[C@@](C)(OC)[C@@H](O)[C@H](C)O2)[C@H](C)[C@@H](O[C@@H]2O[C@H](C)C[C@H](N(C)CCN(C)[C@H]3C[C@@H](C)O[C@@H](O[C@@H]4[C@@H](C)[C@H](O[C@H]5C[C@@](C)(OC)[C@@H](O)[C@H](C)O5)[C@@H](C)C(=O)O[C@H](CC)[C@@](C)(O)[C@H](O)[C@@H](C)/C(=N\OCOCCOC)[C@H](C)C[C@@]4(C)O)[C@@H]3O)[C@H]2O)[C@](C)(O)C[C@@H](C)/C(=N/O)[C@H](C)[C@@H](O)[C@]1(C)O`: the IC50 is 7.2 µM in experiment [1], 18.6 µM in the experiment with KB and 16.2 µM in experiment [2].

As for `CC[C@H]1OC(=O)[C@H](C)[C@@H](O[C@H]2C[C@@](C)(OC)[C@@H](O)[C@H](C)O2)[C@H](C)[C@@H](O[C@@H]2O[C@H](C)C[C@H](N(C)CC(=O)N(C)[C@H]3C[C@@H](C)O[C@@H](O[C@@H]4[C@@H](C)[C@H](O)[C@@H](C)C(=O)O[C@H](CC)[C@@](C)(O)[C@H](O)[C@@H](C)/C(=N\OCOCCOC)[C@H](C)C[C@@]4(C)O)[C@@H]3O)[C@H]2O)[C@](C)(OC)C[C@@H](C)C(=O)[C@H](C)[C@@H](O)[C@]1(C)O`, the half-inhibitory concentration (IC50) (in experiment [1]; in the experiment with KB; in experiment [2]) was over 100 µM each time.

In the case of `CC[C@H]1OC(=O)[C@H](C)[C@@H](O[C@H]2C[C@@](C)(OC)[C@@H](O)[C@H](C)O2)[C@H](C)[C@@H](O[C@@H]2O[C@H](C)C[C@H](N(C)CCN(C)[C@H]3C[C@@H](C)O[C@@H](O[C@@H]4[C@@H](C)[C@H](O[C@H]5C[C@@](C)(OC)[C@@H](O)[C@H](C)O5)[C@@H](C)C(=O)O[C@H](CC)[C@@](C)(O)[C@H](O)[C@@H](C)[C@@H](O)[C@H](C)C[C@@]4(C)O)[C@@H]3O)[C@H]2O)[C@](C)(O)C[C@@H](C)[C@H](O)[C@H](C)[C@@H](O)[C@]1(C)O`, the half-maximal inhibitory concentration (IC50) in experiment [1] is 61.6 µM; with KB it was 44.9 µM; in experiment [2], over 100 µM.

As for `CC[C@H]1OC(=O)[C@H](C)[C@@H](O[C@H]2C[C@@](C)(OC)[C@@H](O)[C@H](C)O2)[C@H](C)[C@@H](O[C@@H]2O[C@H](C)C[C@H](N(C)CCN(C)[C@H]3C[C@@H](C)O[C@@H](O[C@@H]4[C@@H](C)[C@H](O[C@H]5C[C@@](C)(OC)[C@@H](O)[C@H](C)O5)[C@@H](C)C(=O)O[C@H](CC)[C@@](C)(O)[C@H](O)[C@@H](C)/C(=N\OCOCCOC)[C@H](C)C[C@@]4(C)O)[C@@H]3O)[C@H]2O)[C@](C)(OC)C[C@@H](C)/C(=N/O)[C@H](C)[C@@H](O)[C@]1(C)O`, the concentration for half-maximal inhibition (IC50) in experiment [1] came to 22.1 µM; in the experiment on KB, 14.7 µM; in experiment [2] it was 6.3 µM.

With `CC[C@H]1OC(=O)[C@H](C)[C@@H](O[C@H]2C[C@@](C)(OC)[C@@H](O)[C@H](C)O2)[C@H](C)[C@@H](O[C@@H]2O[C@H](C)C[C@H](N(C)CCN(C)[C@H]3C[C@@H](C)O[C@@H](O[C@@H]4[C@@H](C)[C@H](O[C@H]5C[C@@](C)(OC)[C@@H](O)[C@H](C)O5)[C@@H](C)C(=O)O[C@H](CC)[C@@](C)(O)[C@H](O)[C@@H](C)/C(=N\OCc5ccccc5)[C@H](C)C[C@@]4(C)OC)[C@@H]3O)[C@H]2O)[C@](C)(OC)C[C@@H](C)/C(=N/OCc2ccccc2)[C@H](C)[C@@H](O)[C@]1(C)O`, the values for the 50% inhibitory concentration (IC50) (in experiment [1]; in the experiment on KB; in experiment [2]) were 26.5 µM, 7.6 µM and 9.5 µM, respectively.

Take `CC[C@H]1OC(=O)[C@H](C)[C@@H](O[C@H]2C[C@@](C)(OC)[C@@H](O)[C@H](C)O2)[C@H](C)[C@@H](O[C@@H]2O[C@H](C)C[C@H](N(C)C(=O)CN(C)[C@H]3C[C@@H](C)O[C@@H](O[C@@H]4[C@@H](C)[C@H](O[C@H]5C[C@@](C)(OC)[C@@H](O)[C@H](C)O5)[C@@H](C)C(=O)O[C@H](CC)[C@@](C)(O)[C@H](O)[C@@H](C)/C(=N\OCOCCOC)[C@H](C)C[C@@]4(C)O)[C@@H]3O)[C@H]2O)[C@](C)(OC)C[C@@H](C)C(=O)[C@H](C)[C@@H](O)[C@]1(C)O`: the IC50 (in experiment [1]; in the experiment with KB; in experiment [2]) was over 100 µM each time.
